Where a name gives a salt, the structure may show the parent alone.
How the values were obtained:
Human COX-2 [1] = target: T1, Human COX-2 (Homo sapiens, UniProt P35354); test: Fast assay for COX-1 and COX-2 activity (PGE2 ELISA), COX-2; format: biochemical; details: Table II, pre-incubated 10 minutes at 25° C., arachidonic acid 10 μM, stopped after two minutes, pH 7.5
T1 construct: A 2.0 kb fragment containing the coding region of either human or murine COX-1 or human or murine COX-2; made in house; host or cells: SF9 insect cells (baculovirus, transfer vector pVL1393)
T1 sequence (P35354 18-604): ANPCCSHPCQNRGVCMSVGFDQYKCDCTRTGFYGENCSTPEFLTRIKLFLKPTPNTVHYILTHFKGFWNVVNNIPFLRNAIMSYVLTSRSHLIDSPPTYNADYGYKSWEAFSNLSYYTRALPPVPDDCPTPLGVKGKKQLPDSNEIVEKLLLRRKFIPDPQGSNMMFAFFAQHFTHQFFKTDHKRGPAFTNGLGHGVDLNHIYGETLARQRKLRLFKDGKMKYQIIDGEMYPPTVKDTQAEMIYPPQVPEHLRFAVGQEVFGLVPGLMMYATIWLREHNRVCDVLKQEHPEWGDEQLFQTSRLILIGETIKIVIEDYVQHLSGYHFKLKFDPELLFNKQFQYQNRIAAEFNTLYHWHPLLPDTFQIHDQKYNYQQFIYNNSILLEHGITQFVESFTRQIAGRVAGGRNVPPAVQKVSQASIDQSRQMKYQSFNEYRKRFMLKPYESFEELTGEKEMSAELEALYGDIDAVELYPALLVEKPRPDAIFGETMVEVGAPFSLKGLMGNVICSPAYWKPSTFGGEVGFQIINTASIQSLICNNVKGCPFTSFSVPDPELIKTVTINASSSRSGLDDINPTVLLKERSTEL
Description: (§1) Recombinant COX-1 and COX-2 were prepared as described by Gierse et al, [J. Biochem., 305, 479-84 (1995)]. A 2.0 kb fragment containing the coding region of either human or murine COX-1 or human or murine COX-2 was cloned into a BamH1 site of the baculovirus transfer vector pVL1393 (Invitrogen) to generate the baculovirus transfer vectors for COX-1 and COX-2 in a manner similar to the method of D. R. O'Reilly et al (Baculovirus Expression Vectors: A Laboratory Manual (1992)). Recombinant baculoviruses were isolated by transfecting 4 μg of baculovirus transfer vector DNA into SF9 insect cells (2×10^8) along with 200 ng of linearized baculovirus plasmid DNA by the calcium phosphate method. See M. D. Summers and G. E. Smith, A Manual of Methods for Baculovirus Vectors and Insect Cell Culture Procedures, Texas Agric. Exp. Station Bull. 1555 (1987). Recombinant viruses were purified by three rounds of plaque purification and high titer (10^7-10^8 pfu/mL) stocks of virus were prepared. For large scale production, SF9 insect cells were infected in 10 liter fermentors (0.5×10^6/mL) with the recombinant baculovirus stock such that the multiplicity of infection was 0.1. After 72 hours the cells were centrifuged and the cell pellet homogenized in Tris/Sucrose (50 mM: 25%, pH 8.0) containing 1% 3-[(3-cholamidopropyl)dimethylammonio]-1-propanesulfonate (CHAPS). The homogenate was centrifuged at 10,000×G for 30 minutes, and the resultant supernatant was stored at −80° C. before being assayed for COX activity.
(§2) COX activity was assayed as PGE2 formed/μg protein/time using an ELISA to detect the prostaglandin released. CHAPS-solubilized insect cell membranes containing the appropriate COX enzyme were incubated in a potassium phosphate buffer (0.05 M Potassium phosphate, pH 7.5, 2 μM phenol, 1 μM heme, 300 μM epinephrine) with the addition of 20 μl of 100 μM arachidonic acid (10 μM). Compounds were pre-incubated with the enzyme for 10 minutes at 25° C. prior to the addition of arachidonic acid. Any reaction between the arachidonic acid and the enzyme was stopped after two minutes at 37° C./room temperature by transferring 40 μl of reaction mix into 160 μl ELISA buffer and 25 μM indomethacin. The PGE2 formed was measured by standard ELISA technology (Cayman Chemical).

Human COX-2 [2] = target: T1, Human COX-2; test: Assay for COX-1 and COX-2 activity (PGE2 ELISA, recombinant enzyme), COX-2; format: biochemical; details: Table I; pre-incubated 10-20 minutes, arachidonic acid 10 μM, stopped after ten minutes, pH 8.0
Description: The COX-2 inhibition activity of the compounds of this invention illustrated in the Examples was determined by the following methods.
as §1
(§3) COX activity was assayed as PGE2 formed/μg protein/time using an ELISA to detect the prostaglandin released. CHAPS-solubilized insect cell membranes containing the appropriate COX enzyme were incubated in a potassium phosphate buffer (50 mM, pH 8.0) containing epinephrine, phenol, and heme with the addition of arachidonic acid (10 μM). Compounds were pre-incubated with the enzyme for 10-20 minutes prior to the addition of arachidonic acid. Any reaction between the arachidonic acid and the enzyme was stopped after ten minutes at 37° C./room temperature by transferring 40 μl of reaction mix into 160 μELISA buffer and 25 μM indomethacin. The PGE2 formed was measured by standard ELISA technology (Cayman Chemical).

Human COX-1 [3] = target: T2, Human COX-1 (Homo sapiens, UniProt P23219); test: Fast assay for COX-1 and COX-2 activity (PGE2 ELISA), COX-1; format: biochemical; details: Table II, pre-incubated 10 minutes at 25° C., arachidonic acid 10 μM, stopped after two minutes, pH 7.5
T2 construct: A 2.0 kb fragment containing the coding region of either human or murine COX-1 or human or murine COX-2; made in house; host or cells: SF9 insect cells (baculovirus, transfer vector pVL1393)
T2 sequence (P23219 24-599): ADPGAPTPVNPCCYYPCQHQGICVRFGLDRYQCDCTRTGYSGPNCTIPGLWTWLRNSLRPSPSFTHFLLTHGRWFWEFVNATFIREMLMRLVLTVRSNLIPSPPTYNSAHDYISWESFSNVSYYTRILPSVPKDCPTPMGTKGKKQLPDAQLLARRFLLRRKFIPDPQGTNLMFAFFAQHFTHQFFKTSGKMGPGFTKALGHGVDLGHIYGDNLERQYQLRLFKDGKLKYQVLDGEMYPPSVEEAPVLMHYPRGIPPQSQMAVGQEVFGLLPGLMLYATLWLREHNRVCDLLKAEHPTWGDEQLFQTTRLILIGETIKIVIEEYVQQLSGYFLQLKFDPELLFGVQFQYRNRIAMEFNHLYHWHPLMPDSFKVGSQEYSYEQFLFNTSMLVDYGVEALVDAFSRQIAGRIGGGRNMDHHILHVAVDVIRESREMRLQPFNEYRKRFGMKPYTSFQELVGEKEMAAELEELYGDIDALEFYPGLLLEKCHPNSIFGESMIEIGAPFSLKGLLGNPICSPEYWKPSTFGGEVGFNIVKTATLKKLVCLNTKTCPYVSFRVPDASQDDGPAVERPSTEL
Description: as §1, with “Recombinant” for “Recombinant COX-1 and COX-2 were prepared as described by Gierse et al, [J. Biochem., 305, 479-84 (1995)]. A 2.0 kb fragment containing the coding region of either human or murine COX-1 or human or murine COX-2 was cloned into a BamH1 site of the baculovirus transfer vector pVL1393 (Invitrogen) to generate the baculovirus transfer vectors for COX-1 and COX-2 in a manner similar to the method of D. R. O'Reilly et al (Baculovirus Expression Vectors: A Laboratory Manual (1992)). Recombinant”, “1555 (1987).” left out
as §2, with “Any reaction between the arachidonic acid and the enzyme was stopped after two minutes at 37° C./room temperature by transferring 40 μl of reaction mix into 160 μl ELISA buffer and 25 μM indomethacin.” left out

Human COX-1 [4] = target: T2, Human COX-1; test: Assay for COX-1 and COX-2 activity (PGE2 ELISA, recombinant enzyme), COX-1; format: biochemical; details: Table I; pre-incubated 10-20 minutes, arachidonic acid 10 μM, stopped after ten minutes, pH 8.0
Description: as §1, with “Recombinant” for “Recombinant COX-1 and COX-2 were prepared as described by Gierse et al, [J. Biochem., 305, 479-84 (1995)]. A 2.0 kb fragment containing the coding region of either human or murine COX-1 or human or murine COX-2 was cloned into a BamH1 site of the baculovirus transfer vector pVL1393 (Invitrogen) to generate the baculovirus transfer vectors for COX-1 and COX-2 in a manner similar to the method of D. R. O'Reilly et al (Baculovirus Expression Vectors: A Laboratory Manual (1992)). Recombinant”, “1555 (1987).” left out
as §3, with “Any reaction between the arachidonic acid and the enzyme was stopped after ten minutes at 37° C./room temperature by transferring 40 μl of reaction mix into 160 μELISA buffer and 25 μM indomethacin.” left out

SMILES | melting point [°C] | IC50 (Human COX-2 [1]) [nM] | IC50 (Human COX-2 [2]) [nM] | IC50 (Human COX-1 [3]) [nM] | IC50 (Human COX-1 [4]) [nM]
Cc1ccc(-c2cc(C(F)(F)F)nn2-c2ccc(S(N)(=O)=O)c(F)c2)cc1 (as salt: trifluoroacetate) [Example 4, 4-[5-(4-Methylphenyl)-3-(trifluoromethyl)-1H-pyrazol-1-yl]-2-fluorobenzenesulfonamide] | 126 to 128 |  |  |  | 
NS(=O)(=O)c1ccc(-n2nc(C(F)(F)F)cc2-c2ccc(Cl)cc2)cc1F (as salt: trifluoroacetate) [Example 5, 4-[5-(4-Chlorophenyl)-3-trifluoromethyl-1H-pyrazol-1-yl]-2-fluorobenzenesulfonamide] | 140 to 141 |  |  |  | 
COc1ccc(-c2cc(C(F)(F)F)nn2-c2ccc(S(N)(=O)=O)c(F)c2)cc1F (as salt: trifluoroacetate) [Example 6, 4-[5-(3-Fluoro-4-methoxy)-3-trifluoromethyl-1H-pyrazol-1-yl]-2-fluorobenzenesulfonamide] | 124 to 126 |  |  |  | 
NS(=O)(=O)c1ccc(-n2nc(C(F)(F)F)cc2-c2ccc(F)cc2)cc1F (as salt: trifluoroacetate) [Example 8, 2-Fluoro-4-[5-(4-fluorophenyl)-3-(trifluoromethyl)-1H-pyrazol-1-yl]benzenesulfonamide] | 127 to 130 |  |  |  | 
COc1ccccc1-c1cc(C(F)(F)F)nn1-c1ccc(S(N)(=O)=O)c(F)c1 (as salt: trifluoroacetate) [Example 9, 2-Fluoro-4-[5-(2-methoxyphenyl)-3-(trifluoromethyl)-1H-pyrazol-1-yl]benzenesulfonamide] | 159 to 160 |  |  |  | 
Cc1ccc(-c2cc(C(F)(F)F)nn2-c2ccc(S(N)(=O)=O)c(F)c2)cc1 [Example 4, 4-[5-(4-Methylphenyl)-3-(trifluoromethyl)-1H-pyrazol-1-yl]-2-fluorobenzenesulfonamide] |  | 6 | 19 | 20300 | 40500
NS(=O)(=O)c1ccc(-n2nc(C(F)(F)F)cc2-c2ccc(Cl)cc2)cc1F [Example 5, 4-[5-(4-Chlorophenyl)-3-trifluoromethyl-1H-pyrazol-1-yl]-2-fluorobenzenesulfonamide] |  | 4 | 5 | 19900 | 45900
COc1ccc(-c2cc(C(F)(F)F)nn2-c2ccc(S(N)(=O)=O)c(F)c2)cc1F [Example 6, 4-[5-(3-Fluoro-4-methoxy)-3-trifluoromethyl-1H-pyrazol-1-yl]-2-fluorobenzenesulfonamide] |  | 18 | 25 | > 100000 | 45600
COc1ccc(-c2cc(C(F)(F)F)nn2-c2ccc(S(N)(=O)=O)c(F)c2)cc1 [Example 7, 2-Fluoro-4-[5-(4-methoxyphenyl)-3-(trifluoromethyl)-1H-pyrazol-1-yl]benzenesulfonamide] |  | 4 | 5 |  | 
NS(=O)(=O)c1ccc(-n2nc(C(F)(F)F)cc2-c2ccc(F)cc2)cc1F [Example 8, 2-Fluoro-4-[5-(4-fluorophenyl)-3-(trifluoromethyl)-1H-pyrazol-1-yl]benzenesulfonamide] |  | 21 | 20 | 41500 | 56800
COc1ccccc1-c1cc(C(F)(F)F)nn1-c1ccc(S(N)(=O)=O)c(F)c1 [Example 9, 2-Fluoro-4-[5-(2-methoxyphenyl)-3-(trifluoromethyl)-1H-pyrazol-1-yl]benzenesulfonamide] |  | 180 | 250 | > 100000 | > 100000

Other lines, results leading:

melting point [°C] | IC50 (Human COX-2 [1]) [nM] | IC50 (Human COX-2 [2]) [nM] | IC50 (Human COX-1 [3]) [nM] | IC50 (Human COX-1 [4]) [nM] | SMILES
201 to 202 |  |  |  |  | CS(=O)(=O)c1ccc(-c2cc(C(F)F)nn2-c2ccc(F)cc2)cc1F (as salt: trifluoroacetate) [Example 18, 3-(Difluoromethyl)-5-[3-fluoro-4-(methylsulfonyl)phenyl]-1-(4-fluorophenyl)-1H-pyrazole]
138 to 139 |  |  |  |  | CS(=O)(=O)c1ccc(-c2cc(C(F)F)nn2C2CCCCC2)cc1F (as salt: trifluoroacetate) [Example 19, 1-Cyclohexyl-3-(difluoromethyl)-5-[3-fluoro-4-(methylsulfonyl)phenyl]-1H-pyrazole]
146 to 147 |  |  |  |  | Cc1ccc(-n2nc(C(F)F)cc2-c2ccc(S(C)(=O)=O)c(F)c2)cc1Cl (as salt: trifluoroacetate) [Example 20, 1-(3-Chloro-4-methylphenyl)-3-(difluoromethyl)-5-[3-fluoro-4-(methylsulfonyl)phenyl]-1H-pyrazole]
110 to 111 |  |  |  |  | CS(=O)(=O)c1ccc(-c2cc(C(F)F)nn2-c2cccc(C(F)(F)F)c2)cc1F (as salt: trifluoroacetate) [Example 21]
167 to 169 |  | 110 |  | > 100000 | COc1ccc(-c2cc(C(F)F)nn2-c2ccc(S(N)(=O)=O)c(F)c2)cc1F [Example 10, 4-[3-(Difluoromethyl)-5-(3-fluoro-4-methoxyphenyl)-1H-pyrazol-1-yl]-2-fluorobenzenesulfonamide]
180 to 182 |  |  |  |  | Cc1onc(-c2ccccc2)c1-c1ccc(S(N)(=O)=O)c(F)c1 [Example 23]

From patent US20020183362A1, “2-Fluorobenzenesulfonyl compounds for the treatment of inflammation” (Pharmacia Corporation, priority 2000, published 2002)
